# Data reported in US20160333019A1, “SYNTHESIS AND FORMULATIONS OF PORPHYRIN COMPOUNDS” (Aeolus Sciences, Inc., priority 2013, published 2016).
# Experiments:
# Type in all cases: physicochemical
# [1] = Solid form stability: vapor diffusion, drying, grinding, competitive slurry, by XRPD
# Method: Vapor Diffusion into Solid. Form I was used along with 21 solvent system to evaluate the effect of vapor diffusion on polymorphic behavior. About 2 mL solvent was added to a 20 mL scintillation vial. Furthermore, about 30 mg of solid was added to an open 2 mL HPLC vial and the whole vial was placed inside the bigger vial which contained the solvent. […] Both methanol and ethanol ended up with a mixture of Form I and Form VII. Form I kept its integrity at relative humidity of up to 85% which was generated using saturated potassium chloride.
# Drying and Thermal Treatment Studies. A sample was produced using 3 eq. of Mn(III) acetate. The slurry was filtered at ambient without any precautions. The relative humidity of the lab was at 54% at the time of filtration. The wet cake was washed with acetonitrile followed by XRPD analysis which conformed to Form I. The wet cake was dried on a XRPD plate with dome in the over at 40° C., under vacuum for overnight. Then, the sample holder was capped while in the oven followed by XRPD analysis. The resulting solid was a Form III. Then, the cap of the domed holder was opened and allowed the dry solid to be exposed to ambient at RH of 54%.
# Wet and Dry Grinding Studies. Form I was ground using mortar and pestle under dry and wet conditions. The solvents in wet grinding were acetonitrile, acetonitrile:water (98:2) and ethyl acetate. […] It should be noted that the grinding was performed under ambient conditions where relative humidity was around 50-60%.
# Competitive Slurry Experiments. Mixture of six crystal forms (I, II, III, V, VI and VII) were slurried in three different solvents (acetonitrile acetonitrile:water (98:2) and ethyl acetate), at 25±2° C. for 5 days followed by filtration under nitrogen inert condition. About 20 mg of each polymorph added to the vials. The total weight was […] in each vial and 0.75 mL solvent was added. After filtration, the cake was washed with the same solvent as the one used in the slurry. The cake was placed on a sample holder and sealed using the X-ray transparent dome and analyzed using XRPD. The cap was then removed and solid was dried at 45° C. and under vacuum for half a day. The dry sample was then sealed under nitrogen inert environment and analyzed by XRPD. The next step was to expose the dry sample to about 50% relative humidity for 30 minutes followed by XRPD analysis. In the case of acetonitrile, the wet cake was a new pattern designated as Form IV. In acetonitrile:water (98:2), the resulting solid was low crystalline Form I. It seemed that 2 vol % water was not enough to result in a crystalline hydrate. In the case of ethyl acetate, the solid was also low crystalline Form I plus a few extra peaks. The water in starting Form I could have been enough to result in a low crystalline Form I with some extra peaks of the starting forms in hydrophobic ethyl acetate. This was not observed in neat acetonitrile due to affinity of this solvent for water. […] Theoretically, the same water quantity in ethyl acetate results in higher water activity than in acetonitrile.
# Form II is the wet cake out of reaction mixture unexposed to moisture. Section 3.3.2.3 (reactive crystallization) describes the procedure of making Form II. FIG. 15 illustrates the XRPD of Form II. For XRPD analysis, a silicon plate with dome was used to prevent exposure to ambient. Form III is the result of drying of any of the solid forms. […] Due to instability, some peaks might be shifted if the same sample is repeated multiple times. FIG. 16 illustrates the XRPD of Form III. For XRPD analysis, a silicon plate with dome was used to prevent exposure to ambient. Form IV is the wet cake from slurrying all the solid forms in acetonitrile for at least 5 days and at room temperature. This form is unstable and upon exposure to moisture, it converts to Form I. FIG. 17 illustrates the XRPD of Form IV. For XRPD analysis, a silicon plate with dome was used to prevent exposure to ambient. […]
# [2] = Humidity stability of Form I, dynamic vapor sorption and equilibrium water uptake; settings: equilibrium
# Method: Dynamic Vapor Sorption (DVS). Samples were analyzed using an […]™ DVS-2 gravimetric water sorption analyzer. The relative humidity was adjusted between 2-95% and the weight of sample was continuously monitored and recorded.
# Humidity Stability of Form I. Form I was exposed to a typical relative humidity range that most labs will experience e.g. 15-75% at 25° C. Initially the chamber relative humidity was adjusted at 50%. Then the RH was cycled between 15 to 75% and weight was monitored. FIG. 18 illustrates the changes in weight as a function of relative humidity. If the solid is equilibrated at 50% relative humidity the variation in weight would about ±2 wt % between 15-75% RH. Furthermore, an equilibrium study was performed at various relative humidity environments for extended time. Table 5.6 show the equilibrium % water uptake at various humidity levels.
# [3] = Air oxidation of the Mn(II) form
# Method: Without being bound to any particular theory, the chemistry occurring when the pH of the 75 mg/mL solution rises from 4 to 9 over the 16-24 hour period may result from the presence of different oxidation states of Mn(II) and (III).
# One proton is consumed per one molecule of Mn (II) porphyrin complex in the oxidation process. In the absence of acid (for example in WFI water) the oxidation process is expected to be slower and generates hydroxyl-ions: […]
compound,measurement,setting,value
"CCn1cc[n+](CC)c1-c1c2nc(c(-c3n(CC)cc[n+]3CC)c3ccc([n-]3)c(-c3n(CC)cc[n+]3CC)c3nc(c(-c4n(CC)cc[n+]4CC)c4ccc1[n-]4)C=C3)C=C2.O.[Cl-].[Cl-].[Cl-].[Cl-].[Cl-].[Mn+3] [Form I, [5,10,15,20-tetrakis(1,3-diethylimidazolium-2-yl)porphyrinato]manganese(III) chloride hydrate complex]",stability of crystal form,[1]; ambient conditions and relative humidity as low as 15%,stable
same,relative stability among crystal forms,"[1]; competitive slurry of forms I, II, III, V, VI and VII, exposure to moisture",most stable crystal form
same,stability under grinding conditions,"[1]; dry and wet grinding, mortar and pestle, ambient, relative humidity 50-60%",pretty stable
same,relative humidity up to which the form kept its integrity,"[1]; vapor diffusion, 6 days exposure, saturated potassium chloride",up to 85%
same,% water uptake,[2]; relative humidity 20 %,13.50%
same,% water uptake,[2]; relative humidity 40 %,15.01%
same,% water uptake,[2]; relative humidity 75 %,16.83%
same,% water uptake,[2]; relative humidity 80 %,19.06%
"CCn1cc[n+](CC)c1-c1c2nc(c(-c3n(CC)cc[n+]3CC)c3ccc([n-]3)c(-c3n(CC)cc[n+]3CC)c3nc(c(-c4n(CC)cc[n+]4CC)c4ccc1[n-]4)C=C3)C=C2.O.[Cl-].[Cl-].[Cl-].[Cl-].[Cl-].[Mn+3] [Form III, [5,10,15,20-tetrakis(1,3-diethylimidazolium-2-yl)porphyrinato]manganese(III) chloride hydrate complex]",stability of crystal form upon exposure to moisture,[1],unstable and rapidly converts to Form I
same,time to full conversion to Form I,[1]; dry solid exposed to ambient at RH of 54%,less than half an hour
same,% water uptake,[2]; relative humidity 2 %,0.00%
CCn1cc[n+](CC)c1-c1c2nc(c(-c3n(CC)cc[n+]3CC)c3ccc([n-]3)c(-c3n(CC)cc[n+]3CC)c3nc(c(-c4n(CC)cc[n+]4CC)c4ccc1[n-]4)C=C3)C=C2.[Mn+2] [Mn(II) form],half-life of oxidation by air,[3]; aqueous solution containing 0.1% TFA,5 to 7 min
same,stability in air,[3]; solid state,relatively stable
"[5,10,15,20-tetrakis(1,3-diethylimidazolium-2-yl)porphyrinato]manganese(III) chloride hydrate complex [Form IV]",stability of crystal form upon exposure to moisture,[1],unstable
